From ChEMBL document CHEMBL4052778, “Bioactive polyprenylated benzophenone derivatives from the fruits extracts of Garcinia xanthochymus” (Bioorg Med Chem Lett, 2017)
The source made the active and inactive calls. The calls are words filed in the database; no cut-off is given here.

Key:
U-251 [1] = experiment: Cytotoxicity against human U251MG cells assessed as reduction in cell viability after 72 hrs by CyQuant dye-based assay; assay type: functional
NIH3T3 = experiment: Cytotoxicity against mouse NIH/3T3 cells assessed as reduction in cell viability after 72 hrs by CyQuant dye-based assay
MDA-MB-231 = experiment: Cytotoxicity against human MDA-MB-231 cells assessed as reduction in cell viability after 72 hrs by CyQuant dye-based assay; assay type: functional
[2] = target: Signal transducer and activator of transcription 3 (Homo sapiens) (UniProt P40763); experiment: Inhibition of STAT3 activity in human U251MG cells assessed as downregulation of STAT3 phosphorylation at Tyr705 residue at 5 uM up to 24 hrs by Western blot analysis; assay type: cell-based
Signal transducer and activator of transcription 3 (Homo sapiens), sequence (P40763 whole entry): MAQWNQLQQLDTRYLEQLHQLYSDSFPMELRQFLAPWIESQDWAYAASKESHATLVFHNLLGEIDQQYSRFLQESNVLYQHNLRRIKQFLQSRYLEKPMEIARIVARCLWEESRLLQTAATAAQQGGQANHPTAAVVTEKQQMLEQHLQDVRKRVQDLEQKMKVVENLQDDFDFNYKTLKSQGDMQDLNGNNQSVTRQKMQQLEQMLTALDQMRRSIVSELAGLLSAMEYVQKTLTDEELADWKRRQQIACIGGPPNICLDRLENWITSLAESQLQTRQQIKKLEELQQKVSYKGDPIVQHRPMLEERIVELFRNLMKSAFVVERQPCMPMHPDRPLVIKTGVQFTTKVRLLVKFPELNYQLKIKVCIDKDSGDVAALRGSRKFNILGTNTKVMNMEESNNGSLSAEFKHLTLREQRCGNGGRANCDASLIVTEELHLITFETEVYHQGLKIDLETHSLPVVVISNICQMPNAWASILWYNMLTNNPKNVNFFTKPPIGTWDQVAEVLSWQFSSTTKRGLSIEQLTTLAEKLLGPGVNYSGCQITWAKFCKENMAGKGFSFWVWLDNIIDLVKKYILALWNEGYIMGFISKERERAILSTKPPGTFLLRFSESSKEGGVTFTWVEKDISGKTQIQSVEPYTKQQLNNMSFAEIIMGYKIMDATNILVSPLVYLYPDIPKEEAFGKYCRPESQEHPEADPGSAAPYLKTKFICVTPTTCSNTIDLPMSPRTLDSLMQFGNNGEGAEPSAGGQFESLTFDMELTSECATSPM

U-251 [3] = experiment: Antimigratory activity in human U251MG cells at 2.5 to 5.0 uM after 18 hrs by inverted fluorescence microscopic method-based wound-healing assay; assay type: functional, cell-based
[4] = target: Signal transducer and activator of transcription 3 (Homo sapiens) (UniProt P40763); experiment: Inhibition of STAT3 DNA binding activity in human U251MG nuclear extract at 5 uM preincubated for 30 mins followed by addition of [32P]hSIE measured up to 24 hrs by electrophoretic mobility shift assay
[5] = Homo sapiens, U-251, 72 h, read-out: IC50

Structure (SMILES): CC(C)=CC[C@@H]1C[C@]23C[C@H](CC=C(C)C)C(C)(C)[C@](CC=C(C)C)(C(=O)C(C(=O)c4ccc(O)c(O)c4)=C2OC1(C)C)C3=O [ISOXANTHOCHYMOL]
- IC50 (U-251 [1]; [5]): 6 µM
- IC50 (NIH3T3): Non-Toxic
- IC50 (MDA-MB-231): Not Active

Structure (SMILES): C=C(C)C(CC=C(C)C)C[C@@]12C[C@@H](CC=C(C)C)C(C)(C)[C@@](CC=C(C)C)(C(=O)C(C(=O)c3cccc(O)c3)=C1O)C2=O (some centres undefined)
- IC50 (U-251 [1]; [5]): 1.3 µM
- IC50 (NIH3T3): Non-Toxic
- IC50 (MDA-MB-231): Not Active

Structure (SMILES): C=C(C)CC[C@H](C[C@]12C[C@H](CC=C(C)C)C(C)(C)[C@](CC=C(C)C)(C(=O)C(C(=O)c3ccc(O)c(O)c3)=C1O)C2=O)C(=C)C
- inhibition [2]: Active

Structure (SMILES): C=C(C)[C@H]1C[C@@]23C[C@@H](CC=C(C)C)C(C)(C)[C@@](CC=C(C)C)(C(=O)C(C(=O)c4ccc(O)c(O)c4)=C2O[C@@H]1C=C(C)C)C3=O
- IC50 (U-251 [1]; [5]): 3.7 µM
- IC50 (NIH3T3): Non-Toxic
- Activity (U-251 [3]): Active
- IC50 (MDA-MB-231): Not Active
- inhibition [4]: Active

Structure (SMILES): CC(C)=CC[C@H]1C[C@@]23C[C@@H](CC=C(C)C)C(C)(C)[C@@](CC=C(C)C)(C(=O)C(C(=O)c4ccc(O)c(O)c4)=C2OC1(C)C)C3=O [CAMBOGIN]
- IC50 (U-251 [1]; [5]): 2.8 µM
- IC50 (NIH3T3): Non-Toxic
- IC50 (MDA-MB-231): Not Active

Structure (SMILES): CC(C)=CC[C@H]1C[C@]23C[C@@H]4CC=C(C)C[C@]4(C)C[C@@]2(O)c2c(oc4cc(O)c(O)cc4c2=O)[C@@](CC=C(C)C)(C3=O)C1(C)C
- IC50 (U-251 [1]; [5]): 1.8 µM
- IC50 (NIH3T3): Non-Toxic
- IC50 (MDA-MB-231): Not Active

Structure (SMILES): C=C(C)CC[C@H]1C[C@]23C[C@H](CC=C(C)C)C(C)(C)[C@](CC=C(C)C)(C2=O)c2oc4cc(O)c(O)cc4c(=O)c2[C@]3(O)CC1=C
- IC50 (U-251 [1]; [5]): 3.5 µM
- IC50 (NIH3T3): Non-Toxic
- IC50 (MDA-MB-231): Not Active

Structure (SMILES): C=C(C)CCC(CC12CC3C(C=C(C)C)C(C(=O)c4ccc(O)c(O)c4)(CC(CC=C(C)C)(C1=O)C3(C)C)C2=O)C(=C)C (centres undefined)
- IC50 (U-251 [1]; u-251): Not Active
- IC50 (NIH3T3): Non-Toxic
- IC50 (MDA-MB-231): Not Active
